Results as given in ChEMBL document CHEMBL5352486, “Design, synthesis, in vitro - In vivo biological evaluation of novel thiazolopyrimidine compounds as antileishmanial agent with PTR1 inhibition” (Eur J Med Chem, 2023).
Converted amounts (≈) assume the structure as drawn. The source made the active and inactive calls. The calls are words filed in the database; no cut-off is given here.

How the values were obtained:
[1] = test system: Leishmania tropica; test: Antileishmanial activity against Leishmania tropica MHOM/A7/1974/SAF-K27 incubated for 48 hrs by Neubauer hemocytometer analysis; format: functional, organism-based; conditions: MHOM/A7/1974/SAF-K27, 48 h
[2] = test system: Leishmania infantum; test: Antileishmanial activity against Leishmania infantum infected in BALB/c mouse model of cutaneous leishmaniasis assessed as footpad lesion development at 50 mg/kg/day, ID administered for 21 days and measured after 32 weeks by Giemsa staining based analysis (reference value: 4.91 +/- 0.01); format: functional; conditions: time 21 day
[3] = test system: Leishmania infantum; test: Antileishmanial activity against Leishmania infantum infected in BALB/c mouse model of visceral leishmaniasis assessed as parasite growth in spleen at 50 mg/kg/day, IM administered for 21 days; format: functional, organism-based; conditions: time 21.0 day
[4] = test system: Leishmania infantum; test: Antileishmanial activity against Leishmania infantum infected in BALB/c mouse model of cutaneous leishmaniasis assessed as parasite growth in liver at 50 mg/kg/day, ID administered for 21 days; format: functional, organism-based; conditions: time 21.0 day
[5] = test system: Leishmania infantum; test: Antileishmanial activity against Leishmania infantum infected in BALB/c mouse model of cutaneous leishmaniasis assessed as footpad lesion development at 50 mg/kg/day, ID administered for 21 days and measured after 6 weeks by Giemsa staining based analysis (reference value: 2.40 +/- 0.03); format: functional; conditions: time 21 day
[6] = test system: Leishmania infantum; test: Antileishmanial activity against Leishmania infantum infected in BALB/c mouse model of cutaneous leishmaniasis assessed as footpad lesion development at 50 mg/kg/day, ID administered for 21 days and measured after 24 weeks by Giemsa staining based analysis (reference value: 4.90 +/- 0.02); format: functional; conditions: time 21 day
[7] = test system: Leishmania infantum; test: Antileishmanial activity against Leishmania infantum infected in BALB/c mouse model of visceral leishmaniasis assessed as footpad lesion development at 50 mg/kg/day, IM administered for 21 days and measured after 10 weeks by Giemsa staining based analysis (reference value: 21.58 +/- 0.74); format: functional; conditions: time 21 day
[8] = test system: Leishmania infantum; test: Antileishmanial activity against Leishmania infantum infected in BALB/c mouse model of visceral leishmaniasis assessed as footpad lesion development at 50 mg/kg/day, IM administered for 21 days and measured after 6 weeks by Giemsa staining based analysis (reference value: 25.81 +/- 0.84); format: functional; conditions: time 21 day
[9] = test system: Leishmania infantum; test: Antileishmanial activity against Leishmania infantum MHOM/TN/1980/IPT1 incubated for 48 hrs by Neubauer hemocytometer analysis; format: functional, organism-based; conditions: MHOM/TN/1980/IPT1, 48 h
[10] = test system: Leishmania infantum; test: Antileishmanial activity against Leishmania infantum infected in BALB/c mouse model of cutaneous leishmaniasis assessed as footpad lesion development at 50 mg/kg/day, ID administered for 21 days and measured after 26 weeks by Giemsa staining based analysis (reference value: 4.91 +/- 0.01); format: functional; conditions: time 21 day
[11] = test system: Leishmania infantum; test: Antileishmanial activity against Leishmania infantum infected in BALB/c mouse model of cutaneous leishmaniasis assessed as footpad lesion development at 50 mg/kg/day, ID administered for 21 days and measured after 18 weeks by Giemsa staining based analysis (reference value: 4.42 +/- 0.03); format: functional; conditions: time 21 day
[12] = test system: Leishmania infantum; test: Antileishmanial activity against Leishmania infantum infected in BALB/c mouse model of cutaneous leishmaniasis assessed as footpad lesion development at 50 mg/kg/day, ID administered for 21 days and measured after 30 weeks by Giemsa staining based analysis (reference value: 4.92 +/- 0.01); format: functional; conditions: time 21 day
[13] = test system: Leishmania infantum; test: Antileishmanial activity against Leishmania infantum infected in BALB/c mouse model of visceral leishmaniasis assessed as footpad lesion development at 50 mg/kg/day, IM administered for 21 days and measured after 5 weeks by Giemsa staining based analysis (reference value: 27.04 +/- 0.65); format: functional; conditions: time 21 day
[14] = test system: Leishmania infantum; test: Antileishmanial activity against Leishmania infantum infected in BALB/c mouse model of cutaneous leishmaniasis assessed as footpad lesion development at 50 mg/kg/day, ID administered for 21 days and measured after 2 weeks by Giemsa staining based analysis (reference value: 1.61 +/- 0.03); format: functional; conditions: time 21 day
[15] = test system: Leishmania infantum; test: Antileishmanial activity against Leishmania infantum infected in BALB/c mouse model of cutaneous leishmaniasis assessed as footpad lesion development at 50 mg/kg/day, ID administered for 21 days and measured after 8 weeks by Giemsa staining based analysis (reference value: 3.13 +/- 0.03); format: functional; conditions: time 21 day
[16] = test system: Leishmania tropica; test: Potency index, ratio of glucantime IC50 to test compound IC50 for antileishmanial activity against Leishmania tropica MHOM/A7/1974/SAF-K27; format: functional

## CN(C)c1ncc2nc(NC(=O)c3ccc(Cl)c([N+](=O)[O-])c3)sc2n1
[1]
  IC50: 7.14 µg/mL (≈ 18.8 µM)
[2]
  Activity: 2.08
[3]
  Activity: Active
[4]
  Activity: Active
[5]
  Activity: 2.39
[6]
  Activity: 4.88
[7]
  Activity: 29.09
[8]
  Activity: 26.28
[9]
  IC50: 7.06 µg/mL (≈ 18.6 µM)
[10]
  Activity: 4.7
[11]
  Activity: 4.41
[12]
  Activity: 2.58
[13]
  Activity: 26.95
[14]
  Activity: 1.59
[15]
  Activity: 3.09

## CCOC(=O)N1CCN(c2ncc3nc(NC(=O)c4ccc(Cl)c(Cl)c4)sc3n2)CC1
[1]
  IC50: 0.039 µg/mL (≈ 0.081 µM)
[2]
  Activity: 2.42
[3]
  Activity: inactive
[4]
  Activity: Active
[5]
  Activity: 2.4
[6]
  Activity: 4.9
[7]
  Activity: 27.91
[8]
  Activity: 25.71
[16]
  Ratio IC50: 200
[9]
  IC50: 0.041 µg/mL (≈ 0.0852 µM)
[10]
  Activity: 4.73
[11]
  Activity: 4.4
[12]
  Activity: 2.89
[13]
  Activity: 26.78
[14]
  Activity: 1.6
[15]
  Activity: 3.1

## CN1CCN(c2ncc3nc(NC(=O)c4ccc(Cl)c(Cl)c4)sc3n2)CC1
[1]
  IC50: 7.71 µg/mL (≈ 18.2 µM)
[2]
  Activity: 4.73
[3]
  Activity: Active
[4]
  Activity: Active
[5]
  Activity: 2.41
[6]
  Activity: 4.89
[7]
  Activity: 21.12
[8]
  Activity: 25.72
[9]
  IC50: 8.16 µg/mL (≈ 19.3 µM)
[10]
  Activity: 4.87
[11]
  Activity: 4.4
[12]
  Activity: 4.78
[13]
  Activity: 26.63
[14]
  Activity: 1.61
[15]
  Activity: 3.1
